Experimental data as given in ChEMBL document CHEMBL1131907, “Novel synthetic oleanane triterpenoids: a series of highly active inhibitors of nitric oxide production in mouse macrophages” (Bioorg Med Chem Lett, 1999).

organism: Mus musculus; test: Inhibitory activity against production of nitric oxide induced by interferon-gamma in mouse macrophages; assay type: functional, organism-based

SMILES | IC50 [nM]
COC(=O)C1=C[C@]2(C)C3=CC(=O)C4C5CC(C)(C)CC[C@]5(C(=O)O)CC[C@@]4(C)[C@]3(C)CC[C@H]2C(C)(C)C1=O (some centres undefined) | 100
COC(=O)[C@]12CCC(C)(C)CC1C1=CC(=O)[C@@H]3[C@@]4(C)C=C(C#N)C(=O)C(C)(C)[C@@H]4CC[C@@]3(C)[C@]1(C)CC2 (some centres undefined) | 20
CC1(C)CC[C@]2(C(=O)O)CC[C@]3(C)C(=C2C1)CC(=O)[C@@H]1[C@@]2(C)C=C(C#N)C(=O)C(C)(C)[C@@H]2CC[C@]13C | 70
CC1(C)CC[C@]2(C(=O)O)CC[C@]3(C)[C@H](C(=O)C=C4[C@@]5(C)C=CC(=O)C(C)(C)[C@@H]5CC[C@]43C)[C@@H]2C1 | 200
COC(=O)[C@]12CCC(C)(C)CC1C1=CC[C@@H]3[C@@]4(C)C=C(C(N)=O)C(=O)C(C)(C)[C@@H]4CC[C@@]3(C)[C@]1(C)CC2 (some centres undefined) | 14000
COC(=O)[C@]12CCC(C)(C)CC1C1=CC[C@@H]3[C@@]4(C)C=C(C(=O)O)C(=O)C(C)(C)[C@@H]4CC[C@@]3(C)[C@]1(C)CC2 (some centres undefined) | 800
COC(=O)C1=C[C@]2(C)[C@H]3CC=C4C5CC(C)(C)CC[C@]5(C(=O)O)CC[C@@]4(C)[C@]3(C)CC[C@H]2C(C)(C)C1=O (some centres undefined) | 2200
CC1(C)CC[C@]2(C(=O)O)CC[C@]3(C)C(=CC[C@@H]4[C@@]5(C)C=C(Br)C(=O)C(C)(C)[C@@H]5CC[C@]43C)C2C1 (some centres undefined) | 7300
CC1(C)CC[C@]2(C(=O)O)CC[C@]3(C)C(=CC(=O)[C@@H]4[C@@]5(C)C=C(C#N)C(=O)C(C)(C)[C@@H]5CC[C@]43C)C2C1 (some centres undefined) | 40
CC1(C)CC[C@]2(C(=O)O)CC[C@]3(C)C(C(=O)C=C4[C@@]5(C)C=C(C(=O)O)C(=O)C(C)(C)[C@@H]5CC[C@]43C)C2C1 (some centres undefined) | 200
CC1(C)CC[C@]2(C(=O)O)CC[C@]3(C)C(=CC[C@@H]4[C@@]5(C)C=CC(=O)C(C)(C)[C@@H]5CC[C@]43C)C2C1 (some centres undefined) | 5600
COC(=O)[C@]12CCC(C)(C)CC1C1=CC[C@@H]3[C@@]4(C)C=C(Cl)C(=O)C(C)(C)[C@@H]4CC[C@@]3(C)[C@]1(C)CC2 (some centres undefined) | > 40000
COC(=O)C1=C[C@]2(C)[C@H]3CC=C4C5CC(C)(C)CC[C@]5(C(=O)OC)CC[C@@]4(C)[C@]3(C)CC[C@H]2C(C)(C)C1=O (some centres undefined) | 900
COC(=O)[C@]12CCC(C)(C)CC1C1=CC[C@@H]3[C@@]4(C)C=C(Br)C(=O)C(C)(C)[C@@H]4CC[C@@]3(C)[C@]1(C)CC2 (some centres undefined) | > 40000
CC1(C)CC[C@]2(C(=O)O)CC[C@]3(C)C(=CC[C@@H]4[C@@]5(C)C=C(Cl)C(=O)C(C)(C)[C@@H]5CC[C@]43C)C2C1 (some centres undefined) | > 40000
CC1(C)CC[C@]2(C(=O)O)CC[C@]3(C)C(=CC[C@@H]4[C@@]5(C)C=C(C(=O)O)C(=O)C(C)(C)[C@@H]5CC[C@]43C)C2C1 (some centres undefined) | 70
COC(=O)[C@]12CCC(C)(C)CC1C1=CC[C@@H]3[C@@]4(C)C=C(C#N)C(=O)C(C)(C)[C@@H]4CC[C@@]3(C)[C@]1(C)CC2 (some centres undefined) | 700
COC(=O)[C@]12CCC(C)(C)CC1C1C(=O)C=C3[C@@]4(C)C=C(C(=O)O)C(=O)C(C)(C)[C@@H]4CC[C@@]3(C)[C@]1(C)CC2 (some centres undefined) | 0.8
C[C@]12CCC(=O)C=C1CCC1[C@@H]2[C@@H](O)C[C@@]2(C)[C@H]1CC[C@]2(O)C(=O)CO (single isomer, unassigned) [HYDROCORTISONE] | 10
COC(=O)[C@]12CCC(C)(C)C[C@H]1[C@H]1C(=O)C=C3[C@@]4(C)C=C(C#N)C(=O)C(C)(C)[C@@H]4CC[C@@]3(C)[C@]1(C)CC2 [BARDOXOLONE METHYL] | 0.1
CC1(C)CC[C@]2(C(=O)O)CC[C@]3(C)[C@H](C(=O)C=C4[C@@]5(C)C=C(C#N)C(=O)C(C)(C)[C@@H]5CC[C@]43C)[C@@H]2C1 [BARDOXOLONE] | 0.2
C[C@@H]1C[C@H]2[C@@H]3CCC4=CC(=O)C=C[C@]4(C)[C@@]3(F)[C@@H](O)C[C@]2(C)[C@@]1(O)C(=O)CO [DEXAMETHASONE] | 0.1
CC1(C)CC[C@]2(C(=O)O)CC[C@]3(C)C(=CC[C@@H]4[C@@]5(C)CC[C@H](O)C(C)(C)[C@@H]5CC[C@]43C)[C@@H]2C1 [OLEANOLIC_ACID] | > 40000

organism: Mus musculus; test: Inhibitory activity against production of nitric oxide (NO) induced by interferon-gamma (IFN-gamma) in mouse macrophages above 1 uM concentration; Toxic; assay type: functional, organism-based

SMILES | IC50
CC1(C)CC[C@]2(C(=O)O)CC[C@]3(C)C(=CC[C@@H]4[C@@]5(C)C=C(C=O)C(=O)C(C)(C)[C@@H]5CC[C@]43C)C2C1 (some centres undefined) | Toxic
COC(=O)C1=C[C@]2(C)C3=CC(=O)C4C5CC(C)(C)CC[C@]5(C(=O)OC)CC[C@@]4(C)[C@]3(C)CC[C@H]2C(C)(C)C1=O (some centres undefined) | Toxic
COC(=O)[C@]12CCC(C)(C)CC1C1=CC[C@@H]3[C@@]4(C)C=C(C=O)C(=O)C(C)(C)[C@@H]4CC[C@@]3(C)[C@]1(C)CC2 (some centres undefined) | Toxic

organism: Mus musculus; test: Inhibitory activity against production of nitric oxide (NO) induced by interferon-gamma (IFN-gamma) in mouse macrophages below 1 uM concentration; Inactive; assay type: functional, organism-based

SMILES | IC50
CC1(C)CC[C@]2(C(=O)O)CC[C@]3(C)C(=CC[C@@H]4[C@@]5(C)C=C(C=O)C(=O)C(C)(C)[C@@H]5CC[C@]43C)C2C1 (some centres undefined) | Not Active
COC(=O)C1=C[C@]2(C)C3=CC(=O)C4C5CC(C)(C)CC[C@]5(C(=O)OC)CC[C@@]4(C)[C@]3(C)CC[C@H]2C(C)(C)C1=O (some centres undefined) | Not Active
COC(=O)[C@]12CCC(C)(C)CC1C1=CC[C@@H]3[C@@]4(C)C=C(C=O)C(=O)C(C)(C)[C@@H]4CC[C@@]3(C)[C@]1(C)CC2 (some centres undefined) | Not Active
